This passage reports Substrate results from publication PMC4310350 (Drug Design, Development and Therapy, 2015).

One series addresses T1, BCRP (Homo sapiens, UniProt Q9UNQ0).
T1 sequence (Q9UNQ0 1-655): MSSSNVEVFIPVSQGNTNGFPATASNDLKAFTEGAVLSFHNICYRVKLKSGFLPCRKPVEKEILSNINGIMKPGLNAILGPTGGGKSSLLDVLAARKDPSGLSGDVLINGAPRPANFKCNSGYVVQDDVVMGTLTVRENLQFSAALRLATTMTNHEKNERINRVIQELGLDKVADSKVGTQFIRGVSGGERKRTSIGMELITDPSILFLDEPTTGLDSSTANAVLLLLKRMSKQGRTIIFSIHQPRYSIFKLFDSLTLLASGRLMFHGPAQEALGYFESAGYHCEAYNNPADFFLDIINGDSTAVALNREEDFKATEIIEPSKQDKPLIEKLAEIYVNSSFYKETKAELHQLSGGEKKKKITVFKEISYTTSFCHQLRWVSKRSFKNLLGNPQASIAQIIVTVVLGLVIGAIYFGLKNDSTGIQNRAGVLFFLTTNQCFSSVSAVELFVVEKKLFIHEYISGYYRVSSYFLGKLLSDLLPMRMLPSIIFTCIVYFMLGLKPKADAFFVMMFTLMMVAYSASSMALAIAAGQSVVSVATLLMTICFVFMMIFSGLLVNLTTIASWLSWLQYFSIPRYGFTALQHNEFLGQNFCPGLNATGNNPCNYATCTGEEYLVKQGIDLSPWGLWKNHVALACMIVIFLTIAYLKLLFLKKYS
In words: A-to-B and B-to-A transport in LLC-PK1 cells overexpressing BCRP. It is filed as in vitro ADME. The settings on record: BCRP, efflux.

The target in the next series is T2, OCT2 (Homo sapiens, UniProt O15244).
T2 sequence (O15244 1-555): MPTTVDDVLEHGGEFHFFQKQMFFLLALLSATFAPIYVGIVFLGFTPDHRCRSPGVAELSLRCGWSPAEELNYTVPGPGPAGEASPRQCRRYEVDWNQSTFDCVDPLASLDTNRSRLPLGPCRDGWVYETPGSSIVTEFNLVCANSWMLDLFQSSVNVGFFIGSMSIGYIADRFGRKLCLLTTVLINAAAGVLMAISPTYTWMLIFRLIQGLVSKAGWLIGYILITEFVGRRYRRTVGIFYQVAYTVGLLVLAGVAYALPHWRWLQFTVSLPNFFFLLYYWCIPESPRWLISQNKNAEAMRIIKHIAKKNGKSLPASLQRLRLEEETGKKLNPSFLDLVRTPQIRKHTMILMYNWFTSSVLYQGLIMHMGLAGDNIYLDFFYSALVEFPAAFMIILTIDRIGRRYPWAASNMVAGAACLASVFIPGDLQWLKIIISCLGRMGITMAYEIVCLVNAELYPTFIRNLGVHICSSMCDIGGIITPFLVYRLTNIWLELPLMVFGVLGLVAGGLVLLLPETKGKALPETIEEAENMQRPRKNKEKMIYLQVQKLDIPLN
Nature of the series: Uptake in HEK293 cells overexpressing OCT2. It is filed as in vitro ADME. The settings on record: OCT2, influx.

Structures are written as SMILES. Entries after “also recorded” stand apart in the source; their conditions may differ.

As for `O=C(O[C@H]1[C@@H]2C=CO[C@@H](O[C@@H]3O[C@H](CO)[C@@H](O)[C@H](O)[C@H]3O)[C@@H]2[C@@]2(CO)O[C@@H]12)c1ccc(O)cc1` [catalposide], the Substrate result at BCRP is given as “not involved; also recorded: not a substrate”; at OCT2 it was “not involved”.
